# Measured values from patent publication US11279944B2, “Of herbicide tolerance to 4-hydroxyphenylpyruvate dioxygenase (HPPD) inhibitors by down-regulation of HPPD expression in soybean” (BASF AGRICULTURAL SOLUTIONS SEED US LLC, priority 2017, dated 2022).
# How the values were obtained:
# [1] = test system: soybean plants transformed by pMLS0519 (Pf-KGEPHSVV); assay: Field trial of the T1 generation, herbicide tolerance; assay type: in vivo; conditions: Puerto Rico, among the most effective constructs
# Text: (§1) The above result was confirmed in a field trial of the T1 generation.
# [2] = test system: soybean plants transformed by pCPE826 (Pf-Evo41+HPPD-Gm RNAi); assay: as above; conditions: in vivo
# Text: as §1
compound,measurement,setting,value
"CS(=O)(=O)c1cc(C(F)(F)F)ccc1C(=O)c1cnoc1C1CC1 [Isoxaflutole, (5-cyclopropyl-4-isoxazolyl)[2-(methylsulfonyl)-4-(trifluoromethyl)phenyl]methanone]",tolerance to HPPD inhibitor,[1],good tolerance
same,tolerance to HPPD inhibitor,[2],good tolerance
